Laboratory results from patent US20230020663A1, “SULFONAMIDE INHIBITORS AS CTPS1 INHIBITORS” (Step Pharma S.A.S., priority 2019, published 2023).

Test system: human CTPS1 versus CTPS2
Experiment: Human CTPS1 versus CTPS2 selectivity assessment by RapidFire/MS analysis
Type: biochemical
Conditions: Table 26; RapidFire/MS IC50 ratio
Protocol: Human CTPS1 versus CTPS2 Selectivity Assessment by RapidFire/MS Analysis.
The enzyme inhibitory activities against each target isoform of interest may be determined for the compounds of the invention using an optimised RapidFire high-throughput mass spectrometry (RF/MS) assay format. RF/MS assays for both human CTPS1 and CTPS2 may be performed in assay buffer consisting of 50 mM HEPES (Merck), 20 mM MgCl2, 5 mM KCl, 1 mM DTT, 0.01% Tween-20, pH to 8.0 accordingly. Human full-length active C-terminal FLAG-His-tag CTPS1 (UniProtKB—P17812, CTPS[1-591]-[…]) may be obtained from Proteros biostructures GmbH. Human full length active C-terminal FLAG-His-Avi tagged CTPS2 (UniProtKB-Q9NRF8, CTPS2 [1-586]-[…]) may be obtained from Harker Bio.
Human CTPS (1 or 2) protein may be prepared in 1× assay buffer to the final working protein concentration required for the reaction. A 2 uL volume per well of 2×CTPS (1 or 2) protein may be mixed with 40 nL of compound using acoustic (ECHO) delivery and incubated for 10 minutes at 25° C. Each isoform enzymatic reaction may be subsequently initiated by addition of 2 uL per well of a 2× substrate mix in assay buffer. For hCTPS1: ATP (0.3 mM), UTP (0.2 mM), GTP (0.07 mM) and L-glutamine (0.1 mM). For hCTPS2: ATP (0.1 mM), UTP (0.04 mM), GTP (0.03 mM) and L-glutamine (0.1 mM). Each mixture may be incubated for an appropriate amount of time per isoform within the determined linear phase of the reaction at 25′C. A 60 uL volume of stop solution (1% formic acid with 0.5 uM ^13C9-^15N3-CTP in H2O) may be added and the plate immediately heat-sealed and centrifuged for 10 minutes at 4,000 rpm. Following centrifugation, plates may be loaded onto the Agilent RapidFire microfluidic solid phase extraction system coupled to an API4000 triple quadrupole mass spectrometer (RF/MS) for analysis.
In all cases, the enzyme converts UTP to CTP. Highly specific and sensitive multiple reaction monitoring (MRM) MS methods may be optimised for the detection of the enzymatic reaction product, CTP, and the stable isotope labelled product standard ^13C9-^15N3-CTP. Readout for data analysis may be calculated as the ratio between the peak area of the product CTP and the internal standard ^13C9-^15N3-CTP. For data reporting, the following equation may be used: […]
For each screening plate, the means of the negative (DMSO) and positive control values were used for the calculation of the respective assay window (S/B) and Z′ values. The median of the respective control values was used for calculation of percent inhibition according to the following equation: […]
Percentage inhibition was then plotted against compound concentration, and the 50% inhibitory concentration (IC50) was determined from the resultant concentration-response curve.
Fold selectivity between CTPS1 and CTPS2 was subsequently calculated according to the following equation: […]

Question: With `CCOc1cncc(-c2ccc(NC(=O)C(F)(CC)c3ccnc(NS(=O)(=O)C4CC4)n3)nc2)n1` (racemic) [Example P112, 2-(2-(Cyclopropanesulfonamido)pyrimidin-4-yl)-N-(5-(6-ethoxypyrazin-2-yl)pyridin-2-yl)-2-fluorobutanamide] as the molecule, how does the “Selectivity (fold selectivity between CTPS1 and CTPS2)” value read?
Answer: ++ (>30-60 fold (++))

Question: `CCOc1cncc(-c2ccc(NC(=O)C(F)(CC)c3ccnc(NS(=O)(=O)C4CC4)n3)nc2)n1` (single isomer, unassigned) [Example P113, 2-(2-(cyclopropanesulfonamido)pyrimidin-4-yl)-N-(5-(6-ethoxypyrazin-2-yl)pyridin-2-yl)-2-fluorobutanamide] was tested. Which “Selectivity (fold selectivity between CTPS1 and CTPS2)” value did it give?
Answer: + (2-30 fold (+))

Question: `CCOc1cncc(-c2ccc(NC(=O)C(F)(CC)c3ccnc(NS(=O)(=O)C4CC4)n3)nc2)n1` (single isomer, unassigned) [Example P114, 2-(2-(cyclopropanesulfonamido)pyrimidin-4-yl)-N-(5-(6-ethoxypyrazin-2-yl)pyridin-2-yl)-2-fluorobutanamide] was tested. Which “Selectivity (fold selectivity between CTPS1 and CTPS2)” value did it give?
Answer: +++ (>60 fold (+++))

Question: With `CCOc1cncc(-c2ccc(NC(=O)C(F)(CC)c3cncc(NS(=O)(=O)C4CC4)n3)nc2)n1` (single isomer, unassigned) [Example P206] as the molecule, how does the “Selectivity (fold selectivity between CTPS1 and CTPS2)” value read?
Answer: +++ (>60 fold (+++))

Question: For `CCOc1cncc(-c2ccc(NC(=O)C(F)(CC)c3cncc(NS(=O)(=O)C4CC4)n3)nc2)n1` (single isomer, unassigned) [Example P207], which “Selectivity (fold selectivity between CTPS1 and CTPS2)” value is on record?
Answer: + (2-30 fold (+))

Question: `CCC(C(=O)Nc1ccc(-c2cncc(Cl)c2)cc1)c1ccnc(NS(=O)(=O)C2CC2)n1` (stereo not shown) [Example P1, N-(4-(5-Chloropyridin-3-yl)phenyl)-2-(2-(cyclopropanesulfonamido)pyrimidin-4-yl)butanamide] was tested. Which “Selectivity (fold selectivity between CTPS1 and CTPS2)” value did it give?
Answer: + (2-30 fold (+))

Question: With `CCOc1cncc(-c2ccc(NC(=O)C3(c4ccnc(NS(=O)(=O)C5CC5)n4)CCCC3)cc2)n1` [Example P2, 1-(2-(Cyclopropanesulfonamido)pyrimidin-4-yl)-N-(4-(6-ethoxypyrazin-2-yl)phenyl)cyclopentanecarboxamide] as the molecule, how does the “Selectivity (fold selectivity between CTPS1 and CTPS2)” value read?
Answer: +++ (>60 fold (+++))

Question: With `CC(C)Oc1cncc(-c2ccc(NC(=O)Cc3ccnc(NS(=O)(=O)C4CC4)n3)c(F)c2)n1` [Example P12] as the molecule, how does the “Selectivity (fold selectivity between CTPS1 and CTPS2)” value read?
Answer: ++ (>30-60 fold (++))

Question: Which “Selectivity (fold selectivity between CTPS1 and CTPS2)” value does the source give for `O=C(Cc1ccnc(NS(=O)(=O)C2CC2)n1)Nc1ccc(-c2cccnc2)cc1` [Example P16] here?
Answer: ++ (>30-60 fold (++))

Question: How did the “Selectivity (fold selectivity between CTPS1 and CTPS2)” value turn out when `CCOc1cncc(-c2ccc(NC(=O)Cc3ccnc(NS(=O)(=O)C4CC4)n3)cc2)n1` [Example P18, 2-(2-(Cyclopropanesulfonamido)pyrimidin-4-yl)-N-(4-(6-ethoxypyrazin-2-yl)phenyl)acetamide] was run?
Answer: ++ (>30-60 fold (++))

Question: With `CC(C)Oc1cncc(-c2ccc(NC(=O)Cc3ccnc(NS(=O)(=O)C4CC4)n3)cc2)n1` [Example P21] as the molecule, how does the “Selectivity (fold selectivity between CTPS1 and CTPS2)” value read?
Answer: ++ (>30-60 fold (++))

Question: Which “Selectivity (fold selectivity between CTPS1 and CTPS2)” value does the source give for `CCOc1cncc(-c2ccc(NC(=O)C(C)(C)c3ccnc(NS(=O)(=O)C4CC4)n3)nc2)n1` [Example P31] here?
Answer: +++ (>60 fold (+++))

Question: For `CCOc1cncc(-c2ccc(NC(=O)C(C)(C)c3ccnc(NS(=O)(=O)C4CC4)n3)c(C#N)c2)n1` [Example P34], which “Selectivity (fold selectivity between CTPS1 and CTPS2)” value is on record?
Answer: + (2-30 fold (+))

Question: With `CCOc1cncc(-c2ccc(NC(=O)C(C)(C)c3ccnc(NS(=O)(=O)C4CC4)n3)c(F)c2)n1` [Example P38] as the molecule, how does the “Selectivity (fold selectivity between CTPS1 and CTPS2)” value read?
Answer: + (2-30 fold (+))

Question: How did the “Selectivity (fold selectivity between CTPS1 and CTPS2)” value turn out when `CC(C)Oc1cncc(-c2ccc(NC(=O)C(C)(C)c3ccnc(NS(=O)(=O)C4CC4)n3)c(F)c2)n1` [Example P39] was run?
Answer: + (2-30 fold (+))

Question: How did the “Selectivity (fold selectivity between CTPS1 and CTPS2)” value turn out when `CC(C)(C(=O)Nc1ccc(-c2cccnc2)cc1)c1ccnc(NS(=O)(=O)C2CC2)n1` [Example P59] was run?
Answer: + (2-30 fold (+))

Question: With `CCOc1cncc(-c2ccc(NC(=O)C(C)(C)c3nc(NS(=O)(=O)C4CC4)ncc3F)cc2)n1` [Example P68] as the molecule, how does the “Selectivity (fold selectivity between CTPS1 and CTPS2)” value read?
Answer: ++ (>30-60 fold (++))

Question: `CCOc1cncc(-c2ccc(NC(=O)C(C)(C)c3nc(NS(=O)(=O)C4CC4)ncc3C)cc2)n1` [Example P70] was tested. Which “Selectivity (fold selectivity between CTPS1 and CTPS2)” value did it give?
Answer: + (2-30 fold (+))

Question: How did the “Selectivity (fold selectivity between CTPS1 and CTPS2)” value turn out when `CCOc1cncc(-c2ccc(NC(=O)C(C)(C)c3ccnc(NS(=O)(=O)CC)n3)cc2)n1` [Example P74] was run?
Answer: ++ (>30-60 fold (++))

Question: How did the “Selectivity (fold selectivity between CTPS1 and CTPS2)” value turn out when `CCOc1cncc(-c2ccc(NC(=O)C(C)(C)c3ccnc(NS(C)(=O)=O)n3)nc2)n1` [Example P76] was run?
Answer: ++ (>30-60 fold (++))

Question: For `CCOc1cncc(-c2ccc(NC(=O)C3(c4ccnc(NS(=O)(=O)C5CC5)n4)CC3)cc2)n1` [Example P83], which “Selectivity (fold selectivity between CTPS1 and CTPS2)” value is on record?
Answer: +++ (>60 fold (+++))

Question: `CCC(C(=O)Nc1ccc(-c2cncc(C(F)(F)F)n2)cn1)c1ccnc(NS(=O)(=O)C2CC2)n1` (stereo not shown) [Example P87] was tested. Which “Selectivity (fold selectivity between CTPS1 and CTPS2)” value did it give?
Answer: ++ (>30-60 fold (++))

Question: Which “Selectivity (fold selectivity between CTPS1 and CTPS2)” value does the source give for `CCOc1cncc(-c2ccc(NC(=O)C(CC)c3ccnc(NS(=O)(=O)C4CC4)n3)nc2)n1` (stereo not shown) [Example P88] here?
Answer: +++ (>60 fold (+++))

Question: For `CCC(C(=O)Nc1ccc(-c2cncc(OC(C)C)n2)cn1)c1ccnc(NS(=O)(=O)C2CC2)n1` (stereo not shown) [Example P89], which “Selectivity (fold selectivity between CTPS1 and CTPS2)” value is on record?
Answer: +++ (>60 fold (+++))

Same assay, conditions: Table 27; RapidFire/MS IC50 ratio

Question: How did the “Selectivity (fold selectivity between CTPS1 and CTPS2)” value turn out when `CCOc1cncc(-c2ccc(NC(=O)C3(c4ccnc(NS(=O)(=O)C5CC5)n4)CCC(O)CC3)nc2)n1` (single isomer, unassigned) [Example P227, 1-(2-(cyclopropanesulfonamido)pyrimidin-4-yl)-N-(5-(6-ethoxypyrazin-2-yl)pyridin-2-yl)-4-hydroxycyclohexanecarboxamide] was run?
Answer: +++ (>60 fold (+++))

Question: How did the “Selectivity (fold selectivity between CTPS1 and CTPS2)” value turn out when `CCOc1cncc(-c2ccc(NC(=O)C3(c4ccnc(NS(=O)(=O)C5CC5)n4)CCC(O)CC3)nc2)n1` (single isomer, unassigned) [Example P228, 1-(2-(cyclopropanesulfonamido)pyrimidin-4-yl)-N-(5-(6-ethoxypyrazin-2-yl)pyridin-2-yl)-4-hydroxycyclohexanecarboxamide] was run?
Answer: + (2-30 fold (+))

Question: Which “Selectivity (fold selectivity between CTPS1 and CTPS2)” value does the source give for `CCOc1cncc(-c2ccc(NC(=O)C3(c4ccnc(NS(=O)(=O)C5CC5)n4)CCC(N(C)C)CC3)nc2)n1` (single isomer, unassigned) [Example P229, 1-(2-(cyclopropanesulfonamido)pyrimidin-4-yl)-4-(dimethylamino)-N-(5-(6-ethoxypyrazin-2-yl)pyridin-2-yl)cyclohexane-1-carboxamide] here?
Answer: +++ (>60 fold (+++))

Question: For `CCOc1cncc(-c2ccc(NC(=O)C3(c4ccnc(NS(=O)(=O)C5CC5)n4)CCC(N(C)C)CC3)nc2)n1` (single isomer, unassigned) [Example P230, 1-(2-(cyclopropanesulfonamido)pyrimidin-4-yl)-4-(dimethylamino)-N-(5-(6-ethoxypyrazin-2-yl)pyridin-2-yl)cyclohexane-1-carboxamide], which “Selectivity (fold selectivity between CTPS1 and CTPS2)” value is on record?
Answer: +++ (>60 fold (+++))
